US20100298141A1, “SUBSTITUTED PYRIDINE N-OXIDE HERBICIDES” (E. I. DU PONT DE NEMOURS AND COMPANY, priority 2007, published 2010)

Legend:
[1] = system: barnyardgrass; test: Test B flooded paddy test; format: in vivo, Echinochloa crus-galli; settings: Flood, 250 g ai/ha, 13 to 15 days; scale 0 to 100, 0 no effect, 100 complete control
Description: (§1) At time of treatment, test pots were flooded to 3 cm above the soil surface, treated by application of test compounds directly to the paddy water, and then maintained at that water depth for the duration of the test. Treated plants and controls were maintained in a greenhouse for 13 to 15 days, after which time all species were compared to controls and visually evaluated. […] A dash (-) response means no test result.

[2] = system: downy bromegrass; test: Test D preemergence test; format: in vivo, Bromus tectorum; settings: scale 0 to 100
Description: (§2) Seeds of plant species selected from annual bluegrass (Poa annua), blackgrass (Alopecurus myosuroides), downy bromegrass (Bromus tectorum), field violet (Viola arvensis), green foxtail (Setaria viridis), Italian ryegrass (Lolium multiflorum), littleseed canarygrass (Phalaris minor), spring wheat (Triticum aestivum), wild oat (Avena fatua), […]), winter barley (Hordeum vulgare), and winter wheat (Triticum aestivum) were planted and treated preemergence with test chemicals formulated in a non-phytotoxic solvent mixture which included a surfactant. […] A dash (-) response means no test result.

[3] = system: green foxtail; test: Test D preemergence test; format: in vivo, Setaria viridis; settings: scale 0 to 100
Description: as §2

[4] = system: winter wheat; test: Test D preemergence test; format: in vivo, Triticum aestivum; settings: scale 0 to 100
Summary of the method: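 Test chemicals, in a non-phytotoxic solvent blend with surfactant, were applied preemergence to planted seeds; where no result was obtained, a dash is shown.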

[5] = system: winter barley; test: Test D preemergence test; format: in vivo, Hordeum vulgare
Description: as §2

[6] = system: sugarcane; test: Test F pre-/postemergence test; format: in vivo, Saccharum officinarum; settings: preemergence, scale 0 to 100
Description: Seeds of plant species selected from bermudagrass (Cynodon dactylon), Surinam grass (Brachiaria decumbens), large crabgrass (Digitaria sanguinalis), green foxtail (Setaria viridis), goosegrass (Eleusine indica), johnsongrass (Sorghum halepense), kochia (Kochia scoparia), pitted morningglory (Ipomoea lacunosa), purple nutsedge (Cyperus rotundus), common ragweed (Ambrosia elation), mustard (Brassica nigra), guineagrass (Panicum maximum), […] (Paspalum dilatatum), barnyardgrass (Echinochloa crus-galli), southern sandbur (Cenchrus echinatus), common sowthistle (Sonchus oleraceous), prickly […] spinosa), Italian ryegrass (Lolium multiflorum), common purslane (Portulaca oleracea), broadleaf signalgrass (Brachiaria platyphylla), common groundsel (Senecio vulgaris), common chickweed (Stellaria media), Virginia dayflower (Commelina virginica), annual bluegrass (Poa annua), naked crabgrass (Digitaria nuda), […] cochinchinensis), quackgrass (Elytrigia repens), Canada horseweed (Conyza canadensis), field bindweed (Convolvulus arvensis), […] (Bidens bipinnata), common mallow (Malva sylvestris), Russian thistle (Salsola kali), and sugarcane (Saccharum officinarum) were planted and treated preemergence with test chemicals formulated in a non-phytotoxic solvent mixture which included a surfactant. At a different time, sugarcane was treated with postemergence applications of some of the test chemicals formulated in the same manner. Plants were approximately 3- to 4-leaf stage for the postemergence treatments. Treated plants and controls were maintained in a greenhouse for 14 to 21 days, after which time all species were compared to controls and visually evaluated. […] A dash (-) response means no test result.

[7] = system: itchgrass; test: Test G preemergence test; format: in vivo, Rottboellia cochinchinensis; settings: scale 0 to 100
[8] = system: large crabgrass; test: Test G preemergence test; format: in vivo, Digitaria sanguinalis; settings: scale 0 to 100
[9] = system: millet; test: Test G preemergence test; format: in vivo, Panicum miliaceum; settings: scale 0 to 100
[10] = system: Redstem; test: Test C flooded paddy test; format: in vivo; settings: Flood
Description: as §1

[11] = system: Ricefield Bulrush; test: Test C flooded paddy test; format: in vivo; settings: Flood
Description: as §1

[12] = 31 g ai/ha, scale 0 to 100 (0 no effect, 100 complete control)
[13] = 62 g ai/ha, scale 0 to 100, 0 no effect, 100 complete control, 13 to 15 days
[14] = 125 g ai/ha, scale 0 to 100, 0 no effect, 100 complete control, 13 to 15 days
[15] = 250 g ai/ha, scale 0 to 100 (0 no effect, 100 complete control)

Cc1cc[n+]([O-])c(S(=O)(=O)Cc2c(C(F)(F)F)nn(C)c2OC(F)F)c1 [Compound 2]
Plant response rating, Barnyardgrass [1]: 80
Plant response rating, Bromegrass, Downy ([2]; 31 g ai/ha): 0
Plant response rating, Bromegrass, Downy ([2]; 62 g ai/ha): 20
Plant response rating, Bromegrass, Downy ([2]; 125 g ai/ha): 50
Plant response rating, Bromegrass, Downy ([2]; 250 g ai/ha): 55
Plant response rating, Foxtail, Green ([3]; 31 g ai/ha): 0
Plant response rating, Foxtail, Green ([3]; 62 g ai/ha): 30
Plant response rating, Foxtail, Green ([3]; 125 g ai/ha): 55
Plant response rating, Foxtail, Green ([3]; 250 g ai/ha): 65
Plant response rating, Wheat, Winter ([4]; 31 g ai/ha): 0
Plant response rating, Wheat, Winter ([4]; 62 g ai/ha): 0
Plant response rating, Wheat, Winter ([4]; 125 g ai/ha): 15
Plant response rating, Wheat, Winter ([4]; 250 g ai/ha): 25
Plant response rating, Barley ([5]; Preemergence, 62 g ai/ha, scale 0 to 100): 0
Plant response rating, Barley ([5]; Preemergence, 125 g ai/ha, scale 0 to 100): 10
Plant response rating, Barley ([5]; Preemergence, 31 g ai/ha, scale 0 to 100): 0
Plant response rating, Barley ([5]; preemergence, 250 g ai/ha, scale 0 (no effect) to 100 (complete control)): 10
Plant response rating, Sugarcane ([6]; 125 g ai/ha): 70
Plant response rating, Sugarcane ([6]; 500 g ai/ha): 83
Plant response rating, Itchgrass ([7]; 31 g ai/ha): 0
Plant response rating, Itchgrass ([7]; 62 g ai/ha): 15
Plant response rating, Itchgrass ([7]; 125 g ai/ha): 30
Plant response rating, Itchgrass ([7]; 250 g ai/ha): 50
Plant response rating, Crabgrass, Large ([8]; 31 g ai/ha): 0
Plant response rating, Crabgrass, Large ([8]; 62 g ai/ha): 75
Plant response rating, Crabgrass, Large ([8]; 125 g ai/ha): 100
Plant response rating, Crabgrass, Large ([8]; 250 g ai/ha): 100
Plant response rating, Millet ([9]; 31 g ai/ha): 0
Plant response rating, Millet ([9]; 62 g ai/ha): 0
Plant response rating, Millet ([9]; 125 g ai/ha): 75
Plant response rating, Millet ([9]; 250 g ai/ha): 100
Plant response rating, Redstem [10, 12]: 0
Plant response rating, Redstem [10, 13]: 30
Plant response rating, Redstem [10, 14]: 65
Plant response rating, Redstem [10, 15]: 85
Plant response rating, Ricefield Bulrush [11, 12]: 20
Plant response rating, Ricefield Bulrush [11, 13]: 20
Plant response rating, Ricefield Bulrush [11, 14]: 45
Plant response rating, Ricefield Bulrush [11, 15]: 80
